The source of these data is PubChem BioAssay (NCI).

Among the test systems are T-47D breast; BT-549 breast; HCC-2998 colon; HOP-92 NSCLC; MCF7 breast; SF-268 CNS; SK-MEL-28 melanoma; SK-MEL-5 melanoma.
Assay in all cases: DTP human tumour cell line panel, 48 h

One may read the GI50 as the concentration that inhibits growth by half. By TGI is commonly meant the concentration giving total growth inhibition.

The structures appear in SMILES notation. Several values for one entry are separate records, joined by “and”; a condition that tells them apart may be missing. Equal values may be shown once.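 Interpolation was linear, between the two tested concentrations surrounding the appropriate level; five concentrations were tested over 48 hours in 96-well plates. GI50: concentration for 50% inhibition of growth. TGI: total growth inhibition.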 Activity calls are given as the source filed them. No stated cut-off is given here; in the data, active means GI50 below about 0.43 µM; inactive means the rest. Where only a bound is given, the exact number is not on record here.

For `COc1cc(-c2nc3cc(Cl)c(Cl)cc3[nH]2)ccc1OCC(=O)N=Nc1c(O)[nH]c2ccc(Cl)cc12`, in the experiment on T-47D breast, the GI50 is 0.381 µM and the total growth inhibition concentration (TGI) was 2.37 µM.
Turning to `CC1=CC(=O)/C(=C/n2c(=S)[nH]c3cc(C)ccc32)C(=O)O1`, the TGI in the experiment on BT-549 breast, in the experiment with HCC-2998 colon, in the experiment with HOP-92 NSCLC, with MCF7 breast, with SF-268 CNS and in the experiment with SK-MEL-28 melanoma was more than 100 µM each time. In the experiment on SK-MEL-5 melanoma, the TGI was more than 100 µM.
Take `O=P(O)(O)CN1CCNCCN(CP(=O)(O)O)CCN(CP(=O)(O)O)CCNCC1`: the result in the experiment with HOP-92 NSCLC, with SF-268 CNS and in the experiment with SK-MEL-28 melanoma was inactive. Also, in the experiment with MCF7 breast, the GI50 is 99900 µM.
As to `COc1cccc([C@@H]2CC(=O)c3cc4c(cc3N2)OCO4)c1`, the TGI in the experiment with HCC-2998 colon, in the experiment on HOP-92 NSCLC, with MCF7 breast, in the experiment with SF-268 CNS, in the experiment on SK-MEL-28 melanoma and in the experiment on SK-MEL-5 melanoma was more than 100 µM throughout. In the experiment on T-47D breast, this compound returned a concentration for total growth inhibition (TGI) of more than 100 µM.
For the compound `CC1C(C#N)(C#N)C(C#N)=C(N)C1(C)[N+](=O)[O-]` (stereo unspecified), the TGI is more than 100 µM in the experiment with BT-549 breast; more than 100 µM in the experiment with HCC-2998 colon; 8.96 µM with HOP-92 NSCLC; more than 100 µM in the experiment on MCF7 breast; more than 100 µM in the experiment on SF-268 CNS; more than 100 µM in the experiment on SK-MEL-5 melanoma.
Turning to `C[N+](C)(C)CC(=O)N/N=C(/Cc1nc2ccc([N+](=O)[O-])cc2[nH]c1=O)C(=O)Nc1cc(C(F)(F)F)ccc1Cl`, the TGI with HCC-2998 colon, in the experiment with HOP-92 NSCLC, in the experiment with SF-268 CNS, with SK-MEL-28 melanoma and in the experiment on SK-MEL-5 melanoma was more than 100 µM in each case.
Consider `O=S1(=O)OCCCOS(=O)(=O)C1(Br)Br`, for which the TGI in the experiment on BT-549 breast, in the experiment with MCF7 breast, with SF-268 CNS, with SK-MEL-28 melanoma, with SK-MEL-5 melanoma and with T-47D breast was more than 100 µM throughout.
Regarding `O=C(CC(c1ccccc1)C(C(=O)c1ccncc1)C(CC(=O)c1ccncc1)c1ccccc1)c1ccncc1` (stereo unspecified), the TGI in the experiment on BT-549 breast is 57.3 µM; in the experiment on HCC-2998 colon, more than 100 µM; in the experiment with HOP-92 NSCLC, more than 100 µM; with SF-268 CNS, more than 100 µM; in the experiment on SK-MEL-28 melanoma, more than 100 µM; in the experiment on T-47D breast, more than 100 µM.
On to `OCC1OC(c2ccccc2)CC1O` (stereo unspecified), for which the TGI with MCF7 breast, in the experiment on SK-MEL-28 melanoma and in the experiment on SK-MEL-5 melanoma was more than 100 µM throughout.
For `O=C(Nc1ccc(Sc2ccc(N=Nc3c(O)c(S(=O)(=O)O)cc4cc(S(=O)(=O)O)ccc34)cc2)cc1)c1ccc(N=Nc2c(O)c(S(=O)(=O)O)cc3cc(S(=O)(=O)O)ccc23)cc1`, the TGI with HCC-2998 colon is more than 100 µM; in the experiment on HOP-92 NSCLC, 92.4 µM; in the experiment on SF-268 CNS it was more than 100 µM; with SK-MEL-28 melanoma it was 86.5 µM; with SK-MEL-5 melanoma it was 53.9 µM.
In the case of `CS(=O)(=O)OCC1CCCCCCCCCCC12SCCCS2` (stereo unspecified), the TGI with HCC-2998 colon, in the experiment with HOP-92 NSCLC, in the experiment with MCF7 breast, with SF-268 CNS, with SK-MEL-28 melanoma and with SK-MEL-5 melanoma was more than 100 µM in each case. The same compound returned a TGI in the experiment on T-47D breast of more than 100 µM.
Consider `CO[C@]12CC(=O)C3(C(C[C@H]4CC5CC[C@H]6C[C@@H](OC(C)=O)CC[C@]6(OC(C)=O)C5C[C@@]43C)C1)C1C[C@H]3[C@@H]4CC[C@H]5C[C@@H](OC(C)=O)CC[C@]5(OC(C)=O)[C@H]4CC[C@]3(C)C12` (stereo partly specified), for which the TGI in the experiment on HCC-2998 colon, in the experiment on HOP-92 NSCLC, with MCF7 breast, in the experiment on SF-268 CNS, in the experiment with SK-MEL-28 melanoma and in the experiment on SK-MEL-5 melanoma was more than 100 µM each time. This compound also gave a TGI with T-47D breast of more than 100 µM.
`Cc1ccc2c(=O)cc(Cc3csc4ccccc34)[nH]c2n1`: the TGI with BT-549 breast was 66.4 µM; in the experiment on MCF7 breast it was more than 100 µM; in the experiment on SF-268 CNS, more than 100 µM; with SK-MEL-28 melanoma it was more than 100 µM; in the experiment with SK-MEL-5 melanoma, 32.4 µM; in the experiment with T-47D breast, 73.2 µM.
As for `COc1cc2c(c(OC)c1OC)-c1ccc(SC)c(=O)cc1[C@@H](NC(=O)c1ccc([N+](=O)[O-])cc1)CC2`, the TGI is 0.0151 µM in the experiment on HCC-2998 colon; 23.2 µM in the experiment on HOP-92 NSCLC; 25 µM and > 100 µM in the experiment on SF-268 CNS; more than 100 µM with SK-MEL-28 melanoma; 3.79 µM and 1.59 µM with SK-MEL-5 melanoma.
For the compound `O=C(CSCC(=O)N/N=C\c1ccccc1F)N/N=C\c1ccccc1F`, the TGI with HCC-2998 colon, with HOP-92 NSCLC, in the experiment with MCF7 breast, in the experiment on SF-268 CNS, in the experiment on SK-MEL-28 melanoma and with SK-MEL-5 melanoma was more than 100 µM throughout. Also, the TGI with T-47D breast is more than 100 µM.
`O=C(c1ccccc1O)c1cc(-c2ncc3c(=O)c4ccccc4oc3n2)c(-c2ccccc2O)[nH]c1=O`: the TGI with HCC-2998 colon was 38.2 µM; in the experiment on HOP-92 NSCLC it was 52 µM; with MCF7 breast it was 34.2 µM; in the experiment with SF-268 CNS, more than 75.9 µM; in the experiment with SK-MEL-28 melanoma, 65.3 µM; in the experiment with SK-MEL-5 melanoma, 25.8 µM.
`O=Cc1c(Br)[nH]c2ccccc12`: the TGI in the experiment on HCC-2998 colon, in the experiment on HOP-92 NSCLC, in the experiment on MCF7 breast, in the experiment on SF-268 CNS, with SK-MEL-28 melanoma and in the experiment on SK-MEL-5 melanoma was more than 100 µM each time.
On to `Cc1cc2oc3c(ccc(=O)n3C)c(=O)c2c(C)c1Cl`, for which the TGI in the experiment with HCC-2998 colon was more than 100 µM; with HOP-92 NSCLC, more than 100 µM; with SF-268 CNS it was more than 100 µM; with SK-MEL-28 melanoma, 73.1 µM; in the experiment with SK-MEL-5 melanoma it was more than 100 µM; with T-47D breast, more than 100 µM.
Consider `Cn1cnc(SC2=C3C(=O)C=C4S[C@H]5C[C@]42c2c(c(O)c4c6c2=[N+]3CCC=6C=N4)N5)c1CC(N)C(=O)O` (stereo partly specified), for which the TGI came out at 29.8 µM in the experiment with HCC-2998 colon; 34.5 µM in the experiment with HOP-92 NSCLC; 25.1 µM in the experiment on SF-268 CNS; 31.9 µM in the experiment on SK-MEL-28 melanoma; 26.4 µM in the experiment on SK-MEL-5 melanoma.
